Measurements reported in patent US12251449B2, “Synthetic multidomain peptide biomaterials that inhibit inducible nitric oxide synthase” (William Marsh Rice University, priority 2019, dated 2025).
Entries after “also recorded” stand apart in the source; their conditions may differ. *1 amine or outer side, *2 acyl side, *3 side chain or, on linkers, in order; H or OH if unused. Where a SMILES comes first, the peptide text is derived from it. [ ]: non-standard residue; d: D form. X1 = CC(=N)NCCCC[C@H](N[*:1])C(=O)[*:2]

Assays:
iNOS = target: T1, iNOS (Mus musculus, UniProt P29477); assay: iNOS knockdown in vitro Greiss assay; format: cell-based
T1 construct: endogenous in cells; host or cells: RAW 264.7 murine macrophages stimulated with LPS and IFN-gamma
T1 sequence (P29477 1-1144): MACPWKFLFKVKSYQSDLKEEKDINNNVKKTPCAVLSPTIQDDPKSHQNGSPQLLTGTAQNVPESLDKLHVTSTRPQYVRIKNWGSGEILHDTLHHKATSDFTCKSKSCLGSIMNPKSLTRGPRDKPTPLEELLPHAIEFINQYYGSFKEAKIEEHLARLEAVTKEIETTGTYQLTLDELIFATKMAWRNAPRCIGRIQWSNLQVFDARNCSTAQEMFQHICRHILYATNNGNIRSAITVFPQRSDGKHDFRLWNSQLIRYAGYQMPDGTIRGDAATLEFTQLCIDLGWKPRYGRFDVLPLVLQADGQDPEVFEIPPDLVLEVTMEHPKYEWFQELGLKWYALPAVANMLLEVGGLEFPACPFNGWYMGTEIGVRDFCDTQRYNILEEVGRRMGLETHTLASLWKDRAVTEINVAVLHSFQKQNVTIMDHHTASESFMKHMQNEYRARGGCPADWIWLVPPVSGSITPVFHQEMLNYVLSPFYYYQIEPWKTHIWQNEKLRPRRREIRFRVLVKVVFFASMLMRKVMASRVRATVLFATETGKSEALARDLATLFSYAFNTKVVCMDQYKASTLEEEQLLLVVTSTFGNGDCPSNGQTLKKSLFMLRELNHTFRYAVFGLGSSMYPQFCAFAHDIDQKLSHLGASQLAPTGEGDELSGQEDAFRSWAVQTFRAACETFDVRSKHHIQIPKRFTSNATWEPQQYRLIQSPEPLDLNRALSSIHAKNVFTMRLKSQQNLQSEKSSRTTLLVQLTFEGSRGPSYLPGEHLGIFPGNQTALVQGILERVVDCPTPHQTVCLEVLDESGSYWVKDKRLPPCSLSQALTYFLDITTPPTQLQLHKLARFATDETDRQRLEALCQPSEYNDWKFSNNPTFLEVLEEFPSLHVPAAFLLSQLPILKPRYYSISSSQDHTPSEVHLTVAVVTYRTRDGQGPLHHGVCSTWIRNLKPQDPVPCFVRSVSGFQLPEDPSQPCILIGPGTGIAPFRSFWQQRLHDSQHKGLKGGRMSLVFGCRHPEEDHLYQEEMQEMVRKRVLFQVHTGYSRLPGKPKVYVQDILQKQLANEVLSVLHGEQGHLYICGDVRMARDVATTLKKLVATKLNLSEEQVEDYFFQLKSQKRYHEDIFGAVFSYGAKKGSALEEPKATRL
Procedure: iNOS knockdown in vitro Greiss assay. To evaluate the iNOS knockdown efficacy of various materials, the following procedure was used to test % iNOS inhibition of RAW 264.7 cells stimulated with Lipopolysaccharide (LPS, Thermo Fisher Scientific, Rockford, IL) and recombinant mouse IFN-7 (Biolegend, San Diego, CA). RAW macrophages were prepared at a stock concentration of 2.5×10^6 cells/mL, and plated at 2.5×10^5 cells per well in 24-well plates. For samples testing the efficacy of 2-D surface cell culture, 200 μL of MDP hydrogels was applied to evenly coat the surface of each well before addition of cells. Each experimental condition was performed in triplicate. The following controls were included in every experiment, 1) media alone, 2) stimulated cells alone, and 3) unstimulated cells alone. To each well, stimulation media or normal media was then added based on experimental requirement. Stimulation media was prepared with LPS (final concentration 1 μg/mL) and IFN-7 (final concentration 100 U/mL). For samples testing material efficacy in solution (e.g. free L-NIL), after 6 hrs of incubation at 37° C. with 5% CO2 the desired concentration of inhibitor was added to achieve a range of concentrations between 1 μM and 1 mM.
In all cases after 24 hours from time of stimulation, samples of cell media were collected from each well after mixing media by pipetting before collection. Media samples were placed into a 96-well plate and centrifuged at 5000 rpm for 10 min. Supernatants were removed and placed in a new clear 96-well plate, and samples were immediately analyzed using a colorimetric Greiss Assay (Cayman Chemical, Ann Arbor, MI) to assess nitrite levels (Bryan & Grisham, 2007). Color was allowed to develop for 10 min following addition of Greiss reagents, and absorbance was read at 540 nm on a plate reader. Percent iNOS inhibition for each sample was calculated by first subtracting the absorbance of the media-only baseline, and then converting to a percent of maximum nitrite signal as determined by the internal standard of stimulated cells alone.

VEGF = assay: Serum VEGF ELISA in mice bearing B16-F0 melanoma tumors; format: in vivo; conditions: 5 days after single 100 μL intratumoral injection
Procedure: Evaluation of in vivo VEGF reduction using murine B16-F0 melanoma tumor model. C57BL/6J male mice were purchased from The Jackson Laboratory. […] All experiments were performed with approval of IACUC at Baylor College of Medicine (BCM) and followed established protocols. B16-F0 melanoma cell line was purchased from American Type Culture Collection (ATCC) and maintained according to manufacturer instructions (DMEM high-glucose with 10% fetal bovine serum and 1% penicillin/streptomycin). C57BL/6J mice were injected subcutaneously (s.c.) with 3×10^5 B16-F0 cells in a single flank. Once tumors became palpable (day 7 post-inoculation) mice were injected intratumorally (i.t.) with either vehicle buffer control Hank's Balanced Salt Solution (HBSS), free L-NIL dissolved in HBSS at 20 mM, K2-MDP hydrogel at 1 wt. % (5.6 mM peptide), or L-NIL-MDP hydrogel at 1 wt. % (5.2 mM peptide, or approximately 20 mM L-NIL functional groups). All injections were done using 100 μL total injection volume.
Mice were euthanized 5 days following i.t. injections and tumor/blood were collected. […] VEGF quantification of undiluted serum was performed using a mouse VEGF Quantikine ELISA kit (R&D Systems, Minneapolis, MN) following manufacturer's instructions. […] Statistical differences were evaluated using Tukey's multiple comparisons test. […]

Structure (SMILES): CC(=N)NCCCC[C@H](NC(=O)[C@H](CCCCNC(C)=N)NC(=O)[C@H](CC(C)C)NC(=O)[C@H](CO)NC(=O)[C@H](CC(C)C)NC(=O)[C@H](CO)NC(=O)[C@H](CC(C)C)NC(=O)[C@H](CO)NC(=O)[C@H](CC(C)C)NC(=O)[C@H](CO)NC(=O)[C@H](CC(C)C)NC(=O)[C@H](CO)NC(=O)[C@H](CC(C)C)NC(=O)[C@H](CO)NC(=O)[C@H](CCCCNC(C)=N)NC(=O)[C@H](CCCCNC(C)=N)NC(C)=O)C(N)=O [L-NIL-MDP] (Ac-[X1][X1]SLSLSLSLSLSL[X1][X1]-NH2)
- free L-NIL concentration giving a comparable level of iNOS inhibition (iNOS; hydrogel surface culture compared with free L-NIL in solution): ~100 µM
- iNOS inhibition (in words) (iNOS; stimulated RAW macrophages cultured on the hydrogel): greatest degree of iNOS inhibition
- reduction of systemic VEGF levels (in words) (VEGF): significantly reduced systemic VEGF levels; also recorded: Significant VEGF reduction
